This is an account of results in PubChem BioAssay AID2021 (NMMLSC, 2009).

For this assay, the target named is Cell division control protein 42 homolog (Homo sapiens) (UniProt P60953). Nature of the assay: Cdc42 activated mutant GTP-binding inhibitors, SAR follow-up, biochemical, bead-based multiplex flow cytometry, additional SAR set (AID 2021). The conditions noted are these: fluorescent GTP binding; for Ki: measured here: Ki derived from EC50. For orientation: A flow cytometer gives signals particle by particle.

Activity calls are given as the source filed them. How the calls were made is not given here.

Sequence of Cell division control protein 42 homolog (Homo sapiens) (P60953 whole entry, looked up): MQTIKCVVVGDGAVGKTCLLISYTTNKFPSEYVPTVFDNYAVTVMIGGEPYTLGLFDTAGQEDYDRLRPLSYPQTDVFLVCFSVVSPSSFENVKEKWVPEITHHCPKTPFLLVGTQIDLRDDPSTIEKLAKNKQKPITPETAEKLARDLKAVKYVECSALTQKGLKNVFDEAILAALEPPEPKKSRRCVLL

By EC50 is commonly meant the concentration that produces a half-maximal response. Turning to `CC(C(=O)O)c1cccc(Oc2ccccc2)c1` (stereo not given), the EC50 is > 30 µM (inactive).

Regarding `O=C1C(c2c(O)[nH]c3c(Br)cccc23)=Nc2ccccc21`, the EC50 is > 30 µM (inactive).

As a reminder, the Ki is the equilibrium dissociation constant of an inhibitor or competing ligand from its target. High values mean weaker binding, low ones tighter binding. In the case of `CCCCS(=O)(=O)n1c(N)c(C#N)c(-c2cc(OC)c(OC)c(OC)c2)c1C(=O)c1ccccc1`, the EC50 entry was “inactive” and the inhibitory constant (Ki) was determined as 2.88 µM.

As to `CC(C)Cc1ccc([C@H](C)C(=O)O)cc1`, the EC50 result is “inactive” and the inhibitory constant (Ki) is 0.99 µM.

Take `O=C1Nc2cccc(Br)c2/C1=C1/Cc2ccccc2C1=O`: the EC50 is > 30 µM (inactive).

Regarding `COc1cc(-c2c(C#N)c(N)n(S(=O)(=O)c3c(C(C)C)cc(C(C)C)cc3C(C)C)c2C(=O)c2ccccc2)cc(OC)c1OC`, the EC50 was > 30 µM (inactive).

As to `O=[N+]([O-])c1ccc(C#Cc2ccccc2)cc1`, the EC50 was 13.7 µM and the inhibition constant (Ki) was determined as 2.12 µM.

Turning to `O=C1N=c2ccccc2=C1c1[nH]c(=S)[nH]c1O`, the EC50 is > 30 µM (inactive).

For `COc1ccc2cc(CC(=O)O)ccc2c1`, the EC50 was > 30 µM (inactive).

As to `O=C(C#Cc1ccccc1)c1ccc(F)cc1`, the EC50 result is “inactive” and the Ki stood at 9.15 µM.

On to `O=C(C#Cc1ccccc1)c1ccc([N+](=O)[O-])cc1`, for which the EC50 is > 30 µM (inactive).

Regarding `CC(C(=O)O)c1cccc(C(=O)c2ccccc2)c1` (stereo not given), the EC50 is > 30 µM (inactive).

On to `COc1ccc(S(=O)(=O)n2c(N)c(C#N)c(-c3ccccc3)c2C(=O)c2ccc(Br)cc2)cc1`, for which the EC50 was > 30 µM (inactive).

Regarding `O=C1Nc2ccccc2/C1=C1/Cc2ccccc2C1=O`, the EC50 was > 30 µM (inactive).

Regarding `O=Nc1c(-c2c(O)[nH]c3c(Br)cccc23)[nH]c2ccccc12`, the EC50 result is “inactive” and the inhibition constant Ki is 8.52 µM.

As to `O=C(C#Cc1ccccc1)c1ccccc1[N+](=O)[O-]`, the EC50 was > 30 µM (inactive).

Consider `O=C(C#Cc1ccccc1)c1ccc(OC(F)(F)F)cc1`, for which the EC50 was > 30 µM (inactive).

With `N#Cc1ccc(C(=O)C#Cc2ccccc2)cc1`, the EC50 is > 30 µM (inactive).

Turning to `N#Cc1c(-c2ccc(Cl)cc2)c(C(=O)c2ccccc2)n(S(=O)(=O)c2ccc([N+](=O)[O-])cc2)c1N`, the EC50 entry was “inactive” and the Ki was 0.93 µM.

In the case of `O=C(C#Cc1ccccc1)c1cccnc1`, the EC50 was > 30 µM (inactive).

On to `CC1=C(CC(=O)O)c2cc(F)ccc2/C1=C/c1ccc(S(C)=O)cc1` (stereo not given), for which the EC50 is > 30 µM (inactive).

With `O=C(C#Cc1ccccc1)c1ccc(Cl)cc1`, the EC50 is > 30 µM (inactive).

Take `COc1ccc(S(=O)(=O)n2c(N)c(C#N)c(-c3cc(Br)c(OC)c(OC)c3)c2C(=O)c2ccccc2)cc1`: the EC50 was > 30 µM (inactive).

For `COC(=O)c1ccc(C(=O)C#Cc2ccccc2)cc1`, the EC50 was > 30 µM (inactive).

Turning to `O=C1C(c2c(O)[nH]c3c(Cl)cccc23)=Nc2ccccc21`, the EC50 was > 30 µM (inactive).

Consider `O=Nc1c(-c2c(O)[nH]c3c(F)cccc23)[nH]c2ccccc12`, for which the EC50 was > 30 µM (inactive).

Consider `CC(=O)Oc1ccccc1C(=O)O`, for which the EC50 is > 30 µM (inactive).

Regarding `CSc1ccc(/C=C2/C(C)=C(CC(=O)O)c3cc(F)ccc32)cc1`, the EC50 entry is “inactive” and the Ki stood at 7.52 µM.

Consider `O=Nc1c(-c2c(O)[nH]c3ccc(Br)cc23)[nH]c2ccccc12`, for which the EC50 was > 30 µM (inactive).

Consider `O=Nc1c(-c2c(O)[nH]c3c(Cl)cccc23)[nH]c2ccccc12`, for which the EC50 was > 30 µM (inactive).

`O=C1N=c2ccccc2=C1c1[nH]c(=O)[nH]c1O`: the EC50 result was “inactive” and the inhibition constant (Ki) amounted to 0.81 µM.

`COc1ccc(-c2c(C#N)c(N)n(S(C)(=O)=O)c2C(=O)c2ccccc2)cc1Br`: the EC50 entry is “inactive” and the inhibitory constant (Ki) amounted to 2.87 µM.

With `COc1ccc(S(=O)(=O)n2c(N)c(C#N)c(-c3cncc(Br)c3)c2C(=O)c2ccccc2)cc1`, the EC50 was 9.98 µM and the inhibition constant (Ki) came out at 1.54 µM.

Turning to `O=C1C(c2c(O)[nH]c3c(F)cccc23)=Nc2ccccc21`, the EC50 was > 30 µM (inactive).

For the compound `O=C1C(c2c(O)[nH]c3ccc(Br)cc23)=Nc2ccccc21`, the EC50 was > 30 µM (inactive).

As for `COc1ccc(C(=O)C#Cc2ccccc2)cc1`, the EC50 is > 30 µM (inactive).

Regarding `O=C1Nc2c(Br)cccc2/C1=C1/Cc2ccccc2C1=O`, the EC50 is > 30 µM (inactive).

Regarding `O=C1C(c2c(O)[nH]c3ccccc23)=Nc2ccccc21`, the EC50 was > 30 µM (inactive).

As for `O=Nc1c(-c2c(O)[nH]c3ccccc23)[nH]c2ccccc12`, the EC50 is > 30 µM (inactive).

Consider `O=C(C#Cc1ccccc1)c1ccccc1`, for which the EC50 is > 30 µM (inactive).
